Test results published in patent US10030016B2 (Sunesis Pharmaceuticals, Inc., priority 2009, dated 2018).
Where a name gives a salt, the structure may show the parent alone. Read-outs that look alike come from different tables or passages of the source.

Assays:
[1] = tested on: phospho-akt (Thr308) in PC-3 cells; assay: Inhibition of phospho-akt (Thr308) in PC-3 cells, MSD phospho-akt 308 ELISA kit; assay type: cell-based; settings: Homo sapiens, 2 hours, no serum, read-out: EC50
Summary of the method: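 Read-out is MSD electrochemiluminescence of Akt phosphorylated at Thr308 in lysates of PC-3 cells treated 2 h with compound in serum-free medium. Wortmannin at 5 μM defined the low control and DMSO the high control.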

PDK1 = PDK1 (Homo sapiens (Human), UniProt O15530); assay: PDK1 kinase assay (coupled PDK1/AKT/FAM-crosstide assay, IMAP fluorescence polarization); assay type: biochemical
PDK1, sequence (O15530 51-359): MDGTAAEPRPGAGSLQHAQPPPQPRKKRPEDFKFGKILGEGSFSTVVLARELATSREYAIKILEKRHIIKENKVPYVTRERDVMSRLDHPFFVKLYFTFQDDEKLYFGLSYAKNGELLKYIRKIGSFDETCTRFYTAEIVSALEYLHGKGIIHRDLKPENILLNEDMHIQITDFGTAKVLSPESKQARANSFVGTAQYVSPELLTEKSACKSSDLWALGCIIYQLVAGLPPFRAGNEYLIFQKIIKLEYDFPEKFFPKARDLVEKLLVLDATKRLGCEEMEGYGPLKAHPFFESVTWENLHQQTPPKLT
Summary of the method: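 GST-tagged PDK1 (aa 51-359, 0.75 nM) was coupled to unphosphorylated GST-AKT2 140-467-PIFtide (10 nM) and 100 nM FAM-crosstide at 40 μM ATP, in Tris pH 7.2 buffer, for 30 min at 25 °C. Crosstide phosphorylation was read by IMAP fluorescence polarization (ΔmP) and fitted with a 4-parameter curve.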

[2] = inhibition of P308 Akt in PC-3 cells, MSD
[3] = inhibition of phospo-PDK1 in vitro
[4] = inhibition of P308 Akt in PC-3 cells using MSD
[5] = PC-3, 2 h, inhibition of P308 Akt in PC-3 cells, MSD

Which EC50 [1, 2] does the source give for `Nc1ncnc2ccc(-c3ccc(CNc4ncccc4C(=O)N(Cc4cncc(F)c4)Cc4cncc(F)c4)s3)cc12` [Example 3.64, 2-(((5-(4-aminoquinazolin-6-yl)thiophen-2-yl)methyl)amino)-N,N-bis((5-fluoropyridin-3-yl)methyl)nicotinamide (TFA salt)] here?
Its EC50 is 1000 to 10000 nM.

What about the IC50 (PDK1; [3]) of the same compound?
Its IC50 is > 5000 nM.

How did the EC50 [1, 4] turn out when `C[C@H](NC(=O)c1cc(C#N)cnc1NCc1ccc(-c2cnc(N)c(C(=O)N(C)C)c2)cc1)c1ccc(F)cc1` [Example 205, (S)-2-amino-5-(4-((5-cyano-3-(1-(4-fluorophenyl)ethylcarbamoyl)pyridin-2-ylamino)methyl)phenyl)-N,N-dimethylnicotinamide] was run?
The EC50 was 1000 to 10000 nM.

And the IC50 (PDK1; inhibition of PDK1 in vitro)?
The IC50 was 100 to 1000 nM.

`CC(C)Oc1cc(CNc2ncccc2C(=O)NCc2ccc(F)c(F)c2)cc(-c2c[nH]c3ncncc23)c1` [Example 5.8, N-(3,4-difluorobenzyl)-2-{[3-(propan-2-yloxy)-5-(7H-pyrrolo[2,3-d]pyrimidin-5-yl)benzyl]amino}pyridine-3-carboxamide] was tested. Which EC50 [1, 2] did it give?
Its EC50 is 1000 to 10000 nM.

And the IC50 (PDK1; [3])?
The IC50 was < 100 nM.

What does the source list for `O=C(NCC1CCCC1)c1cccnc1NCc1ccc(-c2c[nH]c3ncccc23)s1` [Example 1.19, 2-(((5-(1H-pyrrolo[2,3-b]pyridin-3-yl)thiophen-2-yl)methyl)amino)-N-4-(cyclopentylmethyl) nicotinamide]?
EC50 [1, 2]: 1000 to 10000 nM; IC50 (PDK1; [3]): 1000 to 5000 nM

What does the source list for `Nc1ncnc2ccc(-c3nc(CNc4ncccc4C(=O)NCc4ccc(F)c(F)c4)cs3)cc12` [Ex. 6.8, 2-({[2-(4-aminoquinazolin-6-yl)-1,3-thiazol-4-yl]methyl}amino)-N-(3,4-difluoro-benzyl) pyridine-3-carboxamide]?
EC50 [1, 2]: > 10000 nM; IC50 (PDK1; [3]): < 100 nM

With `C[C@H](NC(=O)c1nccnc1NCc1ccc(-c2cc3c(N)ncnc3cn2)s1)c1ccc(F)cc1` [Example 3.79, 3-({[5-(4-aminopyrido[3,4-d]pyrimidin-6-yl)thiophen-2-yl]methyl}amino)-N-[(1S)-1-(4-fluorophenyl)ethyl] pyrazine-2-carboxamide (TFA salt)] as the compound, how does the EC50 [1, 5] read?
The EC50 was < 1000 nM.

What about the IC50 (PDK1; [3]) of the same compound?
Its IC50 is 100 to 1000 nM.

For `C[C@H](NC(=O)c1nc(C#N)cnc1NCc1ccc(-c2cnc3[nH]nc(NC(=O)C(C)(C)C)c3c2)cc1)c1ccc(F)c(F)c1` [Example 420, (S)-6-cyano-N-(1-(3,4-difluorophenyl)ethyl)-3-(4-(3-pivalamido-1H-pyrazolo[3,4-b]pyridin-5-yl)benzylamino)pyrazine-2-carboxamide], which EC50 [1, 4] is on record?
Its EC50 is 1000 to 10000 nM.

What about the IC50 (PDK1; inhibition of PDK1 in vitro) of the same compound?
Its IC50 is < 100 nM.

`C[C@H](NC(=O)c1cccnc1NCc1cn(-c2ccc3[nH]c(=O)[nH]c3c2)nn1)c1ccc(F)c(F)c1` [Example 9.2, (S)-N-(1-(3,4-difluorophenyl)ethyl)-2-(((1-(2-oxo-2,3-dihydro-1H-benzo[d]imidazol-5-yl)-1H-1,2,3-triazol-4-yl)methyl)amino) nicotinamide] was tested. Which EC50 [1, 2] did it give?
Its EC50 is > 10000 nM.

What about the IC50 (PDK1; [3]) of the same compound?
The IC50 was > 5000 nM.

How did the EC50 [1, 2] turn out when `Nc1ncnc2ccc(-c3ccc(CNc4ncccc4C(=O)Nc4cccc5cccnc45)s3)cc12` [Example 3.32, 2-({[5-(4-aminoquinazolin-6-yl)thiophen-2-yl]methyl}amino)-N-(quinolin-8-yl)pyridine-3-carboxamide (TFA salt)] was run?
The EC50 was > 10000 nM.

And the IC50 (PDK1; [3])?
Its IC50 is > 5000 nM.

Which results are given for `C[C@H](NC(=O)c1cc(C#N)cnc1NCc1ccc(-c2cnc(N)c(CCCCO)n2)cc1)c1ccc(F)cc1` [Example 90, 2-{4-[5-Amino-6-(4-hydroxy-butyl)-pyrazin-2-yl]-benzyl-amino}-5-cyano-N-[(S)-1-(4-fluoro-phenyl)-ethyl]-nicotinamide]?
EC50 [1, 4]: < 1000 nM; IC50 (PDK1; inhibition of PDK1 in vitro): < 100 nM

With `O=C(NCc1ccc(F)c(F)c1)c1cccnc1NCCOc1ccc2c(c1)[nH]c1ncccc12` [Example 21, 2-(2-(9H-pyrido[2,3-b]indol-7-yloxy)ethylamino)-N-(3,4-difluorobenzyl)nicotinamide] as the compound, how does the EC50 [1, 2] read?
Its EC50 is 1000 to 10000 nM.

And the IC50 (PDK1; [3])?
The IC50 was < 100 nM.

How did the EC50 [1, 2] turn out when `Cn1cnc2cnc3ccc(-c4ccc(CNc5ncccc5C(=O)NCc5ccc(F)c(F)c5)s4)cc3c21` [Example 2.24] was run?
Its EC50 is < 1000 nM.

What about the IC50 (PDK1; [3]) of the same compound?
Its IC50 is < 100 nM.

`C[C@H](NC(=O)c1cc(C2=CCOC2)cnc1NCc1ccc(-c2cn(C)c3ncnc(N)c23)cc1)c1ccc(F)cc1` [Example 248, (S)-2-(4-(4-amino-7-methyl-7H-pyrrolo[2,3-d]pyrimidin-5-yl)benzylamino)-5-(2,5-dihydrofuran-3-yl)-N-(1-(4-fluorophenyl)ethyl) nicotinamide] was tested. Which EC50 [1, 4] did it give?
Its EC50 is < 1000 nM.

What about the IC50 (PDK1; inhibition of PDK1 in vitro) of the same compound?
The IC50 was < 100 nM.

Which EC50 [1, 4] does the source give for `C[C@H](NC(=O)c1nc(C#N)cnc1N[C@H](C)c1ccc(-c2cn(C)c3ncnc(N)c23)cc1)c1ccc(F)c(F)c1` [Example 399, 3-((R)-1-(4-(4-amino-7-methyl-7H-pyrrolo[2,3-d]pyrimidin-5-yl)phenyl)ethylamino)-6-cyano-N-((S)-1-(3,4-difluorophenyl)ethyl)pyrazine-2-carboxamide] here?
The EC50 was < 1000 nM.

What about the IC50 (PDK1; inhibition of PDK1 in vitro) of the same compound?
The IC50 was < 100 nM.

`Nc1ncnc2ccc(-c3ccc(CNc4ncc(I)cc4C(=O)NCc4ccc(F)c(F)c4)s3)cc12` [Ex. 8.3, 2-{[5-(4-amino-quinazolin-6-yl)-thiophen-2-ylmethyl]-amino}-N-(3,4-difluoro-benzyl)-5-iodo-nicotinamide] was tested. Which EC50 [1, 2] did it give?
The EC50 was < 1000 nM.

What about the IC50 (PDK1; [3]) of the same compound?
The IC50 was < 100 nM.

Which EC50 [1, 2] does the source give for `CCCNS(=O)(=O)c1cnc(NCc2ccc(-c3ccc4ncnc(N)c4c3)s2)c(C(=O)NC)c1` [Example 8.6.11, 2-(((5-(4-aminoquinazolin-6-yl)thiophen-2-yl)methyl)amino)-N-methyl-5-(N-propylsulfamoyl) nicotinamide] here?
Its EC50 is > 10000 nM.

What about the IC50 (PDK1; [3]) of the same compound?
The IC50 was > 5000 nM.

Which EC50 [1, 2] does the source give for `O=C(NCC1CCCC1)c1cccnc1NCc1cccc(-c2c[nH]c3ncccc23)c1` [Example 1.8, 2-(3-(1H-pyrrolo[2,3-b]pyridin-3-yl)benzylamino)-N-(cyclopentylmethyl)nicotinamide] here?
The EC50 was 1000 to 10000 nM.

What about the IC50 (PDK1; [3]) of the same compound?
Its IC50 is 100 to 1000 nM.

For `C[C@H](NC(=O)c1cc(C#N)cnc1N[C@H](CC(N)=O)c1ccc(-c2c[nH]c3ncnc(N)c23)cc1)c1ccc(F)cc1` [Example 46, 2-((R)-3-amino-1-(4-(4-amino-7H-pyrrolo[2,3-d]pyrimidin-5-yl)phenyl)-3-oxopropylamino)-5-cyano-N—((S)-1-(4-fluorophenyl)ethyl)nicotinamide], which EC50 [1, 4] is on record?
The EC50 was > 10000 nM.

And the IC50 (PDK1; inhibition of PDK1 in vitro)?
Its IC50 is < 100 nM.

`CC(C)Oc1cc(CNc2ncccc2C(=O)N(C)c2ccc(F)cc2)cc(-c2c[nH]c3ncc(C(=O)NC4CC4)cc23)c1` [Example 4.1.9, N-cyclopropyl-3-{3-[({3-[(4-fluorophenyl)(methyl)carbamoyl]pyridin-2-yl}amino)methyl]-5-(propan-2-yloxy)phenyl}-1H-pyrrolo[2,3-b] pyridine-5-carboxamide] was tested. Which EC50 [1, 2] did it give?
Its EC50 is 1000 to 10000 nM.

And the IC50 (PDK1; [3])?
Its IC50 is > 5000 nM.

How did the EC50 [1, 5] turn out when `Cc1ncc(CNC(=O)c2cccnc2NCc2ccc(-c3ccc4ncnc(N)c4c3)s2)cc1F` [Example 3.67, 2-(((5-(4-aminoquinazolin-6-yl)thiophen-2-yl)methyl)amino)-N-((5-fluoro-6-methylpyridin-3-yl)methyl)nicotinamide (TFA salt)] was run?
The EC50 was > 10000 nM.

And the IC50 (PDK1; [3])?
Its IC50 is 1000 to 5000 nM.

Which results are given for `Nc1ncnc2ccc(-c3ccc(CNc4ncc(NC(=O)c5ccccc5)cc4C(=O)NCc4ccc(F)c(F)c4)s3)cc12` [Example 8.5.7, 2-({[5-(4-aminoquinazolin-6-yl)thiophen-2-yl]methyl}amino)-N-(3,4-difluorobenzyl)-5-[(phenylcarbonyl)amino] pyridine-3-carboxamide]?
EC50 [1, 2]: > 10000 nM; IC50 (PDK1; [3]): 100 to 1000 nM

With `N#Cc1cnc(NCc2ccc(-c3ccc4ncnc(N)c4c3)s2)c(C(=O)NCc2ccc(F)c(F)c2)n1` [Example 3.80, 3-(((5-(4-aminoquinazolin-6-yl)thiophen-2-yl)methyl)amino)-6-cyano-N-(3,4-difluorobenzyl)pyrazine-2-carboxamide (TFA salt)] as the compound, how does the EC50 [1, 2] read?
Its EC50 is < 1000 nM.

And the IC50 (PDK1; [3])?
Its IC50 is 100 to 1000 nM.

With `Nc1n[nH]c2ncc(-c3ccc(CNc4ncc(C(F)(F)F)cc4C(=O)Nc4ccncn4)cc3)cc12` [Example 303, 2-(4-(3-amino-1H-pyrazolo [3,4-b]pyridin-5-yl)benzylamino)-N-(pyrimidin-4-yl)-5-(trifluoromethyl)nicotinamide] as the compound, how does the EC50 [1, 4] read?
The EC50 was 1000 to 10000 nM.

What about the IC50 (PDK1; inhibition of PDK1 in vitro) of the same compound?
Its IC50 is < 100 nM.

What does the source list for `O=C(NCc1ccc(F)c(F)c1)c1cccnc1NCc1ccc(-c2ccc3ncccc3c2)s1` [Example 4.5, N-(3,4-difluorobenzyl)-2-(((5-(quinolin-6-yl)thiophen-2-yl)methyl)amino)nicotinamide]?
EC50 [1, 2]: > 10000 nM; IC50 (PDK1; [3]): < 100 nM

With `CN(C)CCCn1cc(-c2ccc(CNc3ncc(C(F)(F)F)cc3C(=O)NCc3ccc(F)c(F)c3)cc2)c2c(N)ncnc21` [Example 55, 2-(4-(4-amino-7-(3-(dimethylamino)propyl)-7H-pyrrolo[2,3-d]pyrimidin-5-yl)benzylamino)-N-(3,4-difluorobenzyl)-5-(trifluoromethyl)nicotinamide] as the compound, how does the EC50 [1, 4] read?
Its EC50 is < 1000 nM.

What about the IC50 (PDK1; inhibition of PDK1 in vitro) of the same compound?
Its IC50 is < 100 nM.

For `C[C@H](NC(=O)c1cc(C#N)cnc1NCc1ccc(-c2ccc(N)nc2)cc1F)c1ccc(F)cc1` [Example 128], which EC50 [1, 4] is on record?
The EC50 was 1000 to 10000 nM.

And the IC50 (PDK1; inhibition of PDK1 in vitro)?
The IC50 was < 100 nM.

`C[C@H](NC(=O)c1cccnc1NCCOc1ccc2c(c1)NC(=O)/C2=C\c1cnc[nH]1)c1ccc(F)c(F)c1` [Example 19.2, (S,Z)-2-(2-(3-((1H-imidazol-5-yl)methylene)-2-oxoindolin-6-yloxy)ethylamino)-N-(1-(3,4-difluorophenyl)ethyl)nicotinamide] was tested. Which EC50 [1, 2] did it give?
The EC50 was < 1000 nM.

What about the IC50 (PDK1; [3]) of the same compound?
Its IC50 is < 100 nM.
